In patent publication US20260265240A1, “PREPARATION METHOD FOR SALT FORM AND CRYSTAL FORM OF 2,6-PIPERIDINEDIONE COMPOUND AND USE THEREOF” (ZHANGZHOU PIEN TZE HUANG PHARMACEUTICAL CO., LTD., priority 2023, published 2026):
Structures can show the parent of a compound that is named as a salt.

How the values were obtained:
[1] = Pharmacokinetic evaluation in mice; format: in vivo, C57BL/6 or C57 mice; settings: male, C57BL/6, mouse, plasma, intravenous injection 2 mg/kg, fasted, read-out: Apparent Volume of Distribution
Source text: C57BL/6 or C57 male mice were selected as the test animals for this study. The LC/MS/MS method was employed to quantitatively determine the plasma drug concentrations at various time points after intravenous injection or intragastric administration of the test compound, aiming to evaluate the pharmacokinetic characteristics of the compound of the present disclosure in mice.
C57BL/6 or C57 mice (male, 20 to 30 g, 7 to 10 weeks old, Beijing Vital River).
A clear solution of the test compound was injected intravenously into the tail vein of C57BL/6 mice (fasted overnight) (vehicle: 10% DMSO/10% solutol/80% H2O), or administered intragastrically to C57 mice (fed). […] The mixture was thoroughly vortexed and mixed, and centrifuged at 6000 g for 3 minutes at 2 to 8° C. […] The mixture was thoroughly vortexed and mixed, and centrifuged at 6000 g for 3 minutes at 2 to 8° C. Plasma drug concentrations were determined by the LC-MS/MS method, and relevant pharmacokinetic parameters were calculated using Phoenix WinNonlin 8.2.0 pharmacokinetic software with non-compartmental model linear-log trapezoidal method.

[2] = Pharmacokinetic evaluation in beagle dogs; format: in vivo; settings: male, dog, plasma, intravenous injection 0.5 mg/kg, fed
Description: Male beagle dogs were selected as the experimental animals in this study.
Beagle dogs (male, 7 to 10 kg, Beijing Mars Biotechnology Co., Ltd.).
A clear solution of the test compound was slowly injected intravenously into beagle dogs (fed) via the peripheral vein (vehicle: […]/10% Solutol/85% H2O), or administered intragastrically to beagle dogs (fed). For intravenous administration, 0.5 mL of blood was collected from the peripheral vein at 0.083, 0.25, 0.5, 1, 2, 4, 6, 8, and 24 h after administration, placed in EDTA-2K anticoagulant tubes, and centrifuged at 3200 g for 10 minutes at 2 to 8° C. to separate the supernatant. For intragastric administration, 0.5 mL of blood was collected from the peripheral vein at 0.083, 0.25, 0.5, 1, 2, 4, 6, 8, and 24 h after administration, placed in EDTA-2K anticoagulant tubes, and centrifuged at 3200 g for 10 minutes at 2 to 8° C. to separate the supernatant. Plasma drug concentrations were determined by the LC-MS/MS method, and relevant pharmacokinetic parameters were calculated using Phoenix WinNonlin 6.3 pharmacokinetic software with non-compartmental model linear-log trapezoidal method.

Compound: O=C1CCC(c2noc3ccc4c(NC(=O)CN5CCN(C[C@H]6CC[C@H](n7cc(NC(=O)c8coc(-c9ccnc(NCC%10CC%10)c9)n8)c(C(F)F)n7)CC6)CC5)cccc4c23)C(=O)N1 (stereo partly drawn) [Hydrochloride of Compound of Formula (I)]
- Vd [1]: 1.6 L/kg
- clearance [2]: 21.3 mL/min/kg
- half-life ([2]; read-out: Elimination Half-Life (converted)): 5.03 h
